Measured values taken from the supplement of paper PMC11208160.

Assay: recombinant barcode read abundance after kanamycin selection (control-corrected) (log10(CPM+1)); higher = more efficient recombination; sequences stand for … in AGTGCAGAGAAAATCGGCCAGTTTTCTCTGCCTGCAGTCCGCATGCCGT…AGATTTATGCAGCGGACTGCCTTTCTCCCAAAGTGATAAACCGGACAGTATCATGGACCGGTTTTCCCGGTAATCCGTATTTGCAAGGTTGGTTTCACT; site = the 11-nt target
Summary of the method: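 For this pooled screen, each oligo contained a promoter, a target, a barcode and the J23119-driven first 104 bases of the bridge RNA. Gibson cloning placed it into a vector supplying the remaining 73 bp and a T7-inducible recombinase, and the pool was co-electroporated into E. coli with a donor plasmid. Recombination efficiency is derived from barcode counts per million at recombinant junctions after averaging and control correction, and is expressed on a log scale as log10(CPM+1), with selection on chloramphenicol/ampicillin/kanamycin plus 0.1 mM IPTG against a chloramphenicol/ampicillin LB agar control.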
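Further: IS621 recombinase and bridge RNA in Escherichia coli cells.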

“CAGAGGCCTTGGGTTCTAACCTGTTGCCT (site CAGAGGCCTAG)” and “CAGAGGCCTTGGGTTCTAACCTGTTGCCT (site CAGCGGCCTAG)” are within 0.2 log units of each other in “recombinant barcode read abundance (log10)” value: 0.224 for the first, 0.376 for the second.

“CAGAGGCCTTGGGTTCTAACCTGTTGCCT (site CAGGGGCCTAG)” and “CAGAGGCCTTGGGTTCTAACCTGTTGCCT (site CAGTGGCCTAG)” are within 0.2 log units of each other in “recombinant barcode read abundance (log10)” value: 0.149 for the first, 0 for the second.

Going from “CAGAGGTCTTGGGTTCTAACCTGTTGCCT (site CAGAGCTCTAG)” to “CAGAGGTCTTGGGTTCTAACCTGTTGCCT (site CAGAGGTCTAG)”, the “recombinant barcode read abundance (log10)” value rises from 0 to 1.39.

First: CAGCAAGCTTGGGTTCTAACCTGTTGCCT (site CAGCAAGCTAG)
Second: CAGCAAGCTTGGGTTCTAACCTGTTGCCT (site CAGTACGCTAG)
The “recombinant barcode read abundance (log10)” value of the first is higher: 1.17 for the first, 0.0513 for the second.

Going from “CAGCACTCTTGGGTTCTAACCTGTTGCTA (site CAGCACTCTTA)” to “CAGCACTCTTGGGTTCTAACCTGTTGCTA (site CAGGACTCTAA)”, the “recombinant barcode read abundance (log10)” value falls from 2.12 to 0.201.

First: CAGCATACTTGGGTTCTAACCTGTTGCCT (site CAGCATACTAG)
Second: CAGCATACTTGGGTTCTAACCTGTTGCCT (site CCGCATACTAG)
The “recombinant barcode read abundance (log10)” value of the first is higher: 1.74 for the first, 0.159 for the second.

“CAGCATACTTGGGTTCTAACCTGTTGCCT (site CGGCATACTAG)” and “CAGCATACTTGGGTTCTAACCTGTTGCCT (site CTGCATACTAG)” are within 0.2 log units of each other in “recombinant barcode read abundance (log10)” value: 0.215 for the first, 0.0255 for the second.

Compared with “CAGCCCTCTTGGGTTCTAACCTGTTGCTA (site CAGCCCTCTTA)”, “CAGCCCTCTTGGGTTCTAACCTGTTGCTA (site CCGCCCTCTAA)” is lower in “recombinant barcode read abundance (log10)” value: 2.75 for the first, 0.188 for the second.

First: CAGCCTTCTTGGGTTCTAACCTGTTGCTT (site CAGCCTTCTAA)
Second: CAGCCTTCTTGGGTTCTAACCTGTTGCTT (site CATCCTCCTAA)
The “recombinant barcode read abundance (log10)” value of the first is higher: 0.718 for the first, 0.0417 for the second.

Going from “CAGCGTGCTTGGGTTCTAACCTGTTGCCT (site CAGCGTGCTAG)” to “CAGCGTGCTTGGGTTCTAACCTGTTGCCT (site CCGCGTGCTAG)”, the “recombinant barcode read abundance (log10)” value falls from 0.838 to 0.318.

Compared with “CAGCGTGCTTGGGTTCTAACCTGTTGCCT (site CGGCGTGCTAG)”, “CAGCGTGCTTGGGTTCTAACCTGTTGCCT (site CTGCGTGCTAG)” is higher in “recombinant barcode read abundance (log10)” value: 0.216 for the first, 0.612 for the second.

First: CAGGAACCTTGGGTTCTAACCTGTTGCCT (site AAGGAACCTAG)
Second: CAGGAACCTTGGGTTCTAACCTGTTGCCT (site CAGGAACCTAG)
The “recombinant barcode read abundance (log10)” value of the first is lower: 0.15 for the first, 2.01 for the second.

“CAGGAACCTTGGGTTCTAACCTGTTGCCT (site GAGGAACCTAG)” and “CAGGAACCTTGGGTTCTAACCTGTTGCCT (site TAGGAACCTAG)” are within 0.2 log units of each other in “recombinant barcode read abundance (log10)” value: 0.235 for the first, 0.216 for the second.

Going from “CAGGCCACTTGGGTTCTAACCTGTTGCCT (site CAGGCCACTAG)” to “CAGGCCACTTGGGTTCTAACCTGTTGCCT (site CCGGCCACTAG)”, the “recombinant barcode read abundance (log10)” value falls from 0.945 to 0.0473.

First: CAGGCCACTTGGGTTCTAACCTGTTGCCT (site CGGGCCACTAG)
Second: CAGGCCACTTGGGTTCTAACCTGTTGCCT (site CTGGCCACTAG)
The “recombinant barcode read abundance (log10)” value of the first is higher: 1.04 for the first, 0.357 for the second.

Going from “CAGTACTCTTGGGTTCTAACCTGTTGCCT (site CAGTAATCTAG)” to “CAGTACTCTTGGGTTCTAACCTGTTGCCT (site CAGTACTCTAG)”, the “recombinant barcode read abundance (log10)” value rises from 0.122 to 2.29.

“CAGTACTCTTGGGTTCTAACCTGTTGCCT (site CAGTAGTCTAG)” and “CAGTACTCTTGGGTTCTAACCTGTTGCCT (site CAGTATTCTAG)” are within 0.2 log units of each other in “recombinant barcode read abundance (log10)” value: 0.1 for the first, 0.0289 for the second.

“CAGTGGCCTTGGGTTCTAACCTGTTGCCT (site CAGAGGCCTAG)” and “CAGTGGCCTTGGGTTCTAACCTGTTGCCT (site CAGCGGCCTAG)” are within 0.2 log units of each other in “recombinant barcode read abundance (log10)” value: 0.0837 for the first, 0.124 for the second.

“CAGTGGCCTTGGGTTCTAACCTGTTGCCT (site CAGGGGCCTAG)” and “CAGTGGCCTTGGGTTCTAACCTGTTGCCT (site CAGTGGCCTAG)” are within 0.2 log units of each other in “recombinant barcode read abundance (log10)” value: 0.234 for the first, 0.132 for the second.

First: CAGTTCGCTTGGGTTCTAACCTGTTGCCT (site CAGTTAGCTAG)
Second: CAGTTCGCTTGGGTTCTAACCTGTTGCCT (site CAGTTCGCTAG)
The “recombinant barcode read abundance (log10)” value of the first is lower: 0.141 for the first, 1.6 for the second.

“CAGTTCGCTTGGGTTCTAACCTGTTGCCT (site CAGTTGGCTAG)” and “CAGTTCGCTTGGGTTCTAACCTGTTGCCT (site CAGTTTGCTAG)” are within 0.2 log units of each other in “recombinant barcode read abundance (log10)” value: 0.0461 for the first, 0.0585 for the second.

“CAGTTTGCTTGGGTTCTAACCTGTTGCCT (site CAGTTAGCTAG)” and “CAGTTTGCTTGGGTTCTAACCTGTTGCCT (site CAGTTCGCTAG)” are within 0.2 log units of each other in “recombinant barcode read abundance (log10)” value: 0.102 for the first, 0.172 for the second.

Compared with “CAGTTTGCTTGGGTTCTAACCTGTTGCCT (site CAGTTGGCTAG)”, “CAGTTTGCTTGGGTTCTAACCTGTTGCCT (site CAGTTTGCTAG)” is higher in “recombinant barcode read abundance (log10)” value: 0 for the first, 0.512 for the second.

Compared with “CATAACGCTTGGGTTCTAACCTGTTGCCT (site CATAACGCTAG)”, “CATAACGCTTGGGTTCTAACCTGTTGCCT (site GCATCTACTTA)” is lower in “recombinant barcode read abundance (log10)” value: 1.18 for the first, 0.102 for the second.

Compared with “CATAGAGCTTGGGTTCTAACCTGTTGCCT (site CATAGAGCTAG)”, “CATAGAGCTTGGGTTCTAACCTGTTGCCT (site CATAGGGCTCG)” is lower in “recombinant barcode read abundance (log10)” value: 0.648 for the first, 0.215 for the second.

Going from “CATAGGGCTTGGGTTCTAACCTGTTGCCG (site CATAGAGCTAG)” to “CATAGGGCTTGGGTTCTAACCTGTTGCCG (site CATAGGGCTCG)”, the “recombinant barcode read abundance (log10)” value rises from 0.0324 to 1.03.

“CATAGTCCTTGGGTTCTAACCTGTTGCCA (site CATAGTCCTTG)” and “CATAGTCCTTGGGTTCTAACCTGTTGCCA (site GTACAATCTCT)” are within 0.2 log units of each other in “recombinant barcode read abundance (log10)” value: 0.299 for the first, 0.112 for the second.

Compared with “CATCAGCCTTGGGTTCTAACCTGTTGCGT (site CATCAGCCTAC)”, “CATCAGCCTTGGGTTCTAACCTGTTGCGT (site TATCAGCCTAA)” is lower in “recombinant barcode read abundance (log10)” value: 1.63 for the first, 0.174 for the second.

Compared with “CATCCATCTTGGGTTCTAACCTGTTGCAT (site CATCCATCTAT)”, “CATCCATCTTGGGTTCTAACCTGTTGCAT (site TCGAGGCCTTA)” is lower in “recombinant barcode read abundance (log10)” value: 0.883 for the first, 0.328 for the second.

“CATCCTCCTTGGGTTCTAACCTGTTGCTT (site CAGCCTTCTAA)” and “CATCCTCCTTGGGTTCTAACCTGTTGCTT (site CATCCTCCTAA)” are within 0.2 log units of each other in “recombinant barcode read abundance (log10)” value: 0.103 for the first, 0.0487 for the second.

Going from “CATCGATCTTGGGTTCTAACCTGTTGCGT (site CATCGATCTAC)” to “CATCGATCTTGGGTTCTAACCTGTTGCGT (site CTTTGATCTAC)”, the “recombinant barcode read abundance (log10)” value falls from 1.6 to 0.0816.

Compared with “CATCGGACTTGGGTTCTAACCTGTTGCGA (site AGGGCACCTCT)”, “CATCGGACTTGGGTTCTAACCTGTTGCGA (site CATCGGACTTC)” is higher in “recombinant barcode read abundance (log10)” value: 0.112 for the first, 1.35 for the second.

First: CATGAGACTTGGGTTCTAACCTGTTGCGG (site CATGAGACTCC)
Second: CATGAGACTTGGGTTCTAACCTGTTGCGG (site GCGATCCCTAA)
The “recombinant barcode read abundance (log10)” value of the first is higher: 2.18 for the first, 0.0802 for the second.

Going from “CATGAGCCTTGGGTTCTAACCTGTTGCCT (site CATAAGCCTAG)” to “CATGAGCCTTGGGTTCTAACCTGTTGCCT (site CATCAGCCTAG)”, the “recombinant barcode read abundance (log10)” value falls from 0.694 to 0.0278.

Going from “CATGAGCCTTGGGTTCTAACCTGTTGCCT (site CATGAGCCTAG)” to “CATGAGCCTTGGGTTCTAACCTGTTGCCT (site CATTAGCCTAG)”, the “recombinant barcode read abundance (log10)” value falls from 2.23 to 0.196.

“CATGATTCTTGGGTTCTAACCTGTTGCCT (site CATAATTCTAG)” and “CATGATTCTTGGGTTCTAACCTGTTGCCT (site CATCATTCTAG)” are within 0.2 log units of each other in “recombinant barcode read abundance (log10)” value: 0.0239 for the first, 0.087 for the second.

Going from “CATGATTCTTGGGTTCTAACCTGTTGCCT (site CATGATTCTAG)” to “CATGATTCTTGGGTTCTAACCTGTTGCCT (site CATTATTCTAG)”, the “recombinant barcode read abundance (log10)” value falls from 1.05 to 0.0435.

“CATGCTCCTTGGGTTCTAACCTGTTGCAT (site CATGCTCCTAG)” and “CATGCTCCTTGGGTTCTAACCTGTTGCAT (site CATGCTCCTAT)” are within 0.2 log units of each other in “recombinant barcode read abundance (log10)” value: 0.168 for the first, 0.194 for the second.

With “CATGCTCCTTGGGTTCTAACCTGTTGCCT (site CATGCTCCTAG)” the “recombinant barcode read abundance (log10)” value was 0.353.
